Results: patent EP0998946A1, “Non-porphyrin compound for use as a diagnosticum and/or pharmaceutical” (K.U. LEUVEN RESEARCH & DEVELOPMENT, priority 1998, dated 2000)

Columns and labels:
[1] = tested on: Reperfused hepatic infarction in rats; assay: MRI contrast enhancement, reperfused hepatic infarction in rats; format: in vivo, Wistar rats
[2] = tested on: Acute myocardial infarction; assay: MRI contrast enhancement, acute reperfused myocardial infarction in dogs; format: in vivo, Mongrel dogs; details: dog
[3] = tested on: Acute myocardial infarction; assay: MRI contrast enhancement, reperfused myocardial infarction in rabbits; format: in vivo, New Zealand rabbits; details: rabbit heart, 18 hours after IV injection at 0.05 mmol/kg, T1-w spin echo
mice = assay: Acute lethal toxicity (LD50) in mice
rats = assay: Acute lethal toxicity (LD50) in rats; details: 5.0 mmol/kg
necrotic liver = assay: Biodistribution: tissue Gd content by ICP-AES in rats; details: Gadophrin-2 comparison
[4] = tested on: reperfused hepatic infarction; assay: Scintigraphic imaging and infarction to normal tissue radioactivity ratio; format: in vivo, rat; details: 74 MBq
Procedure: Two effective and reproducible animal models have been induced and used in the in vivo assessment of newly synthesized agents. • 1. Reperfused hepatic infarction in rats: adult Wistar rats weighing about 350 grams were anesthetized with intraperitoneal injection of pentobarbital (Nembutal®, 40 mg/kg, Sanofi Sante Animale, B-1130 Brussels, Belgium). Under laparotomy, reperfused hepatic infarction was induced by temporarily clamping the hilum of the right liver lobes for 3 hours. The abdominal cavity was then closed and the rats were allowed to recover from surgery. • 2. Acute myocardial infarction in rabbits and dogs: under general anesthesia with Nembutal® at 6 mg/kg/h and intubated ventilation, adult New Zealand rabbits of 3 kg or Mongrel dogs of 20 kg underwent open-chest surgery through the seventh intercostal space. The left anterior descending (LAD) or circumflex (Cx) branch of the coronary artery was encircled and occluded with a snare-occluder for 150 minutes and reopened by losing the occluder to induce irreversible reperfused AMI. The thoracic cavity was closed by layers with the free air expelled.
[…] This animal was prepared as described above. Scintigraphic images were acquired during 1 to 5 minutes at regular time intervals up to 24 h after injection, using a Triad-gamma camera equipped with an ultra-high resolution parallel collimator.
After sacrificing the animal, organs were isolated and necrotic and viable liver parts were separated and weighed. Their 99m Tc radioactivity was measured using a sodium iodine scintillation detector coupled to a multichannel analyzer. The activity per gram tissue was a factor of 3.2 higher in necrotic liver tissue as compared to normal liver tissue.
This imaging result has been confirmed by radioactivity counting with a factor of more than 3 between infarcted and normal liver tissues.

[5] = rat, 0.05 mmol/kg, T1 weighted spin echo

**Q.** With CNC[C@H](O)[C@@H](O)[C@H](O)[C@H](O)CO.CNC[C@H](O)[C@@H](O)[C@H](O)[C@H](O)CO.O=C([O-])CN(CCN(CC(=O)[O-])CC(=O)O)CCN(CC(=O)[O-])CC(=O)O.[Gd+3] [Gd-DTPA, reference compound] as the molecule, how does the “contrast enhancement of the lesions” value ([1]; T1 weighted MRI, hepatic and myocardial infarcts, iv 0.05 mmol/kg (Gd-DTPA 0.1 mmol/kg), degree and duration equal to that with Gadophrin-2) read?
**A.** only enhances nonspecifically the lesions at the early phase (<2h)

**Q.** “N,N'-Bis(diethylenetriamino penta-acetato)-4,4'-methylene bis(3-hydroxy-2-naphthalene carboxylic hydrazide), Gd-complex, sodium salt [ECIII-60]” was tested. Which “signal intensity of infarcted liver versus normal liver” value ([1]; rat, 0.05 mmol/kg, 60 minutes after injection, T1 weighted spin echo) did it give?
**A.** surpassed that of normal liver

**Q.** And the “time at which the necrosis-to-normal contrast reached maximum” value [1, 5]?
**A.** 24 h

**Q.** What about the “time until the enhancement of the necrosis became homogeneous” value [1, 5] of the same molecule?
**A.** within a couple of hours

**Q.** What about the “enhancement at the infarcted papillary muscle” value ([2]; eighteen hours after contrast, 0.05 mmol/kg IV) of the same molecule?
**A.** extremely strong enhancement

**Q.** What about the “signals of blood pool and papillary muscle” value ([2]; ten minutes after IV injection at 0.05 mmol/kg, T1-w turbo-FLASH) of the same molecule?
**A.** strongly enhanced

**Q.** What about the “enhancement of the transmural infarct” value [3] of the same molecule?
**A.** persistently enhanced

**Q.** What about the “No. Deaths/No. animals” value (mice; 2.15 mmol/kg) of the same molecule?
**A.** 0/4

**Q.** What about the “No. Deaths/No. animals” value (mice; 5.0 mmol/kg) of the same molecule?
**A.** 3/3

**Q.** And the “No. Deaths/No. animals” value (rats)?
**A.** 4/4

**Q.** With gadolinium mesoporphyrin [Gadophrin-2] as the molecule, how does the “Gadolinium content, proportion necrotic liver to normal liver” value (necrotic liver) read?
**A.** one-to-one

**Q.** Which results are given for “N,N'-Bis(diethylenetriamino penta-acetato)-4,4'-methylene bis(3-hydroxy-2-naphthalene carboxylic hydrazide), technetium-99m complex, sodium salt [Example 3]”?
**A.** nuclear scintigraphy finding ([4]; rat with reperfused right liver lobe infarction, 24 hours after administration): hot spot caused by accumulation tracer in the necrotic liver lobe only; activity per gram tissue, factor necrotic liver tissue versus normal liver tissue ([4]; rat, 99mTc radioactivity of isolated liver parts after sacrifice): 3.2; scintigraphic visualization of the infarcted region ([4]; rat, images acquired 20 h after injection): Clear visualization of the infarcted region; radioactivity counting, factor between infarcted and normal liver tissues ([4]; rat, 24 hours after administration): more than 3
